By IC50 is commonly meant the midpoint of a concentration-inhibition curve.

For the test, the system named is IL-2 production in Jurkat T cells (clone E6-1). The test is described as follows: Jurkat T-cell IL-2 production assay. Particulars: Homo sapiens, 10 h, read-out: IC50, IL-2 production reduced to 50% of control. It is filed as cell-based. The procedure: Jurkat T cells (clone E6-1) were purchased from the American Type Culture Collection of Manassas, Va. and maintained in growth media consisting of RPMI 1640 medium containing 2 mM L-glutamine (commercially available from Mediatech Inc. of Hemdon, Va.), with 10% fetal bovine serum (commercially available from Hyclone Laboratories Inc. of Omaha, Nebr.) and penicillin/streptomycin. All cells were cultured at 37° C. in 95% air and 5% CO2. Cells were plated at a density of 0.2×10^6 cells per well in 200 μL of media. Compound stock (20 mM) was diluted in growth media and added to each well as a 10× concentrated solution in a volume of 25 μL, mixed, and allowed to pre-incubate with cells for 30 minutes. The compound vehicle (dimethylsulfoxide) was maintained at a final concentration of 0.5% in all samples. After 30 minutes the cells were activated with PMA (phorbol myristate acetate, final concentration 50 ng/mL) and PHA (phytohemagglutinin, final concentration 2 μg/mL). PMA and PHA were added as a 10× concentrated solution made up in growth media and added in a volume of 25 μL per well. Cell plates were cultured for 10 hours. Cells were pelleted by centrifugation and the media removed and stored at −20° C. Media aliquots are analyzed by sandwich ELISA for the presence of IL-2 as per the manufacturers instructions (Endogen Inc. of Woburn, Mass.). […]

Regarding `Nc1ccc2snc3c2c1C(=O)c1ccccc1-3` [5-amino-anthra(9,1-cd)isothiazol-6-one], the concentration for half-maximal inhibition (IC50) worked out at 30 µM.
